Results on four compounds are retold here after US20210196724A1, “BIARYL COMPOSITIONS AND METHODS FOR MODULATING A KINASE CASCADE” (Athenex, Inc., priority 2016, published 2021).

Several values for one entry are separate records, joined by “and”; a condition that tells them apart may be missing. Identical values can stand only once. Like-named read-outs stand apart in the source and are kept apart here.

Series [1] has as its system U87 cells. The experiment in a line: MTT cell growth inhibition (GI50), U87. The class given is cell-based, human. The note with it: 3 days. The procedure:
(§1) The drug concentration required to block net cell growth by 50% relative to a control sample is measured as the GI50. The GI50s for several of the compounds of the application were assayed as described.
(§2) MTT assay: U87 and GL261 cells were seeded in 96-well plate (6×10^3 cells in 100 μl of DMEM+10% FBS media per well) and incubated overnight at 37° C. with 5% CO2. All test compounds were diluted (10 point 2-fold serial dilution) in a separate 96-well plate to yield 10× of final concentrations (0.5-256 nM). A volume of 11 μl of 10× dilutions was added to appropriate wells (n=3). To value (reflecting the starting number of cells upon drug treatment) was determined by following steps as described below. After 3 days incubation at 37° C. with 5% CO2, 10 μl of MTT solution (5 mg/ml in PBS) was added to each well and plates were incubated at 37° C. for 3 h to allow MTT to form formazan crystals by reacting with metabolically active cells. 100 μl of 20% SDS was added to each well and plates were incubated overnight at 37° C. with 5% CO2. Afterward, OD570 was measured using microplate reader. The cell growth percentage of control was calculated according to percentage of control=(T−T0)/(C−T0)×100% or OD value of the test well exposure to test drug—OD value at time zero/(OD of the control well without drug treatment−OD value at time zero)×100%. Growth inhibition curves and GI50 were determined using GraphPad Prism 5 software.

Series [2] concerns GL261 cells. The experiment in a line: MTT cell growth inhibition (GI50), GL261. Format: cell-based, murine. Particulars: 3 days. The procedure:
as §1, §2

Series [3] relates to HT-29. The experiment in a line: Cell growth inhibition (GI50), HT-29. Format: cell-based. The protocol: as §1
The subject of series [4] is Jurkat. Kind of series: Cell growth inhibition (GI50), Jurkat. Format: cell-based. The procedure:
as §1

Series [5] is described as follows: Pharmacokinetic properties after IV and PO administration. Format: in vivo.
Series [6] in a line: Brain permeability (brain:plasma ratio). Format: in vivo. Particulars: read-out: Brain:Plasma (B:P) Average. The procedure:
Brain permeability can be measured by various methods known in the art. For example, brain permeability can be measured by calculating the ratio between the concentration of a compound of the application in the brain and the concentration of the compound in the plasma (i.e., BP ratio). In one aspect, a compound of the application has a B:P ratio of at least 1.0, 1.1, 1.2, 1.3, 1.4, 1.5, 1.6, 1.7, 1.8, 1.9, or 2.0 at 1 hour after administration of the compound to a subject. In one aspect, a compound of the application has a B:P ratio of at least 1.5, 1.6, 1.7, 1.8, 1.9, or 2.0 at 1 hour after administration of the compound to a subject. In one aspect, a compound of the application has a B:P ratio of at least 1.4, 1.5, 1.6, 1.7, 1.8, 1.9, 2.0, 2.1, 2.2, or 2.3 at 2 hours after administration of the compound to a subject. In one aspect, a compound of the application has a B:P ratio of at least 1.9, 2.0, 2.1, 2.2, or 2.3 at 2 hours after administration of the compound to a subject. In one aspect, a compound of the application has a B:P ratio of at least 1.7, 1.8, 1.9, 2.0, 2.1, 2.2, 2.3, 2.4, or 2.5 at 4 hours after administration of the compound to a subject. In one aspect, a compound of the application has a B:P ratio of at least 2.2, 2.3, 2.4, or 2.5 at 4 hours after administration of the compound to a subject.

The subject of series [7] is GL261 glioblastoma cells injected intra-cranially. The experiment in a line: GL261 murine model of glioblastoma (intra-cranial), survival. Format: in vivo, C57BL/6 mice. The protocol: The anti-tumor activity of Compound 121, as a single agent, was studied in the GL261 murine model of human glioblastoma. Murine GL261 glioblastoma cells were injected intra-cranially into syngeneic, immune-competent hosts (C57BL/6). In order for oral therapeutics to be effective, it is required that the therapeutic be able to cross the blood-brain barrier in order to achieve sufficient levels in the brain to exert an anti-tumor effect. Survival was the major endpoint for the study. The mice either succumbed to the tumor or were euthanized based on severity of tumor-dependent morbidity. Mice that achieved long-term survival (>80 days) were re-challenged with a sub-cutaneous injection of GL261 cells to assess the development of a durable immune response to GL261. Mice that underwent the re-challenge phase were not treated with Compound 121.
GL261 cells (1×10^5 cells) were implanted into the brain of a C57BL/6 host using stereotactice injection. Compound 121 was dosed orally once per day at 1 mg/kg (N=10) for 45 days beginning 3 days post-tumor cell implantation. Compound Y was dosed orally once per day at 5 mg/kg (N=10) for 45 days beginning 3 days post-tumor implantation. A vehicle was administered to a control group of mice (N=10) per the same schedule.
Mice were monitored for signs of tumor dependent morbidity, including head tilt, hunching, ataxia, and limb weakness. Mice were euthanized when cumulative signs of high tumor burden were evident.

Where [8] appears, read: in vivo, IV Administration (5 mg/kg).

Turning to `Cc1cc(N2CCOC[C@@H]2C)ccc1-c1ccc(CC(=O)NCc2ccccc2)nc1` (stereo in doubt) [Compound 104], the concentration for 50% growth inhibition (GI50) in series [1] is 4 nM; in series [2] it was 10 nM and 5.3 nM; in series [3] (HT-29) it was 2.5 nM; in series [3] (Homo sapiens, HT-29, HT-29), 3.1 nM; in series [4] it was 2.5 nM; in series [4] (Homo sapiens) it was 2.3 nM.
Regarding `C[C@H]1COCCN1c1ccc(-c2ccc(CC(=O)NCc3ccccc3)nc2)cc1` [Compound 108], the GI50 in series [1] (Homo sapiens, U-87 MG, 72 h) was determined as 6.6 nM; in series [2] (Mus musculus, GL261, 72 h), 6.8 nM; in series [3] (Homo sapiens, HT-29, HT-29), 3 nM.
On to `Cc1nc(CC(=O)NCc2cccc(F)c2)ccc1-c1ccc(N2CCOC[C@@H]2C)cc1` [Compound 113], for which the GI50 in series [2] is 120 nM and 99 nM; in series [2] (Mus musculus, GL261, 72 h), 180 nM; in series [3] (Homo sapiens, HT-29, HT-29) it was 46 nM.
`O=C(Cc1ccc(-c2ccc(N3CCOCC3)cc2)cn1)NCc1cccc(F)c1` [Compound Y, reference compound]: in series [5] (IV Administration (5 mg/kg)), the “AUCIV (dose-normalized)” value worked out at 553 kg·ng·h/mL/mg and the t0.5 was 0.364 h. For the same compound, the “F (%) = 100 × AUCpo/AUCIV” value in series [5] (PO 20 mg/kg vs IV 5 mg/kg) is recorded as 39.3%. Further, the “AUCPO (dose-normalized)” value in series [5] (PO Administration (20 mg/kg)) was 217 kg·ng·h/mL/mg. In series [5] (setting [8]), this compound had a C0 of 4620 ng/mL and a clearance of 30.2 mL/min/kg. Moreover, the Vd in series [5] (in vivo, IV Administration (5 mg/kg), read-out: Vss) was found to be 0.962 L/kg. Also, the peak concentration (Cmax) in series [5] (in vivo, PO Administration (20 mg/kg)) is 2590 ng/mL. Also, the Kp at 0.25 h in series [6] (time point 0.25 h) stood at 1.56. In series [6] (time point 0.5 h), the Kp at 0.5 h came to 1.46. Further, in series [6] (time point 1 h), the Kp at 1 h is 1.33. For the same compound, the Kp at 2 h in series [6] (time point 2 h) was determined as 0.712. In addition, the Kp at 4 h in series [6] (time point 4 h) was 0.834. Further, the Kp at 6 h in series [6] (time point 6 h) was found to be 0.633. Further, the Kp at 8 h in series [6] (time point 8 h) amounted to 0.685. Further, in series [7] (dosed once daily at >20 mg/kg), the “Activity in GL261 model” value is reported as “demonstrated activity”. Besides, in series [7] (orally once per day at 5 mg/kg for 45 days), the Effect on survival result is on record as “only a marginal, insignificant effect on survival”.

As a reminder, the GI50 is the concentration at which growth is held to half of that of the control. The low end stands for more potent growth inhibition, the high end for less potent growth inhibition. One may read the Cmax as the maximum level reached in the sampled fluid or tissue.
